# Data as given in ChEMBL document CHEMBL1201862, “PubChem BioAssay data set” (2004).
# Calls of active or inactive are those of the source.
# Legend:
# [1] = target: T1, Neuropeptide Y receptor type 2 (Homo sapiens, UniProt P49146); experiment: NPY-Y2 antagonist potency, selectivity check, dose response, counter-screen for NPY-Y1 antagonist project, cell-based (AID 1278); assay type: functional
# T1 sequence (P49146 whole entry): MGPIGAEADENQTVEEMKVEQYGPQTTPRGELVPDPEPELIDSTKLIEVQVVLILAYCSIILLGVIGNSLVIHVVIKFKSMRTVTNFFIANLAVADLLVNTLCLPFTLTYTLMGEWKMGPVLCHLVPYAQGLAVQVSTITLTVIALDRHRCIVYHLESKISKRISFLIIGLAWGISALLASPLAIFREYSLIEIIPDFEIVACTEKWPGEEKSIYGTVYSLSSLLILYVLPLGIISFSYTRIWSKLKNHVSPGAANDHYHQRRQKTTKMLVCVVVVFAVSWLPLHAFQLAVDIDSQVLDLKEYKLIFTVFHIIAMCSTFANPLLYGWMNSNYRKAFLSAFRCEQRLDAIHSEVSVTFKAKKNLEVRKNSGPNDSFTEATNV
# [2] = target: T2, Neuropeptide Y receptor type 1 (Homo sapiens, UniProt P25929); experiment: NPY-Y1 receptor antagonist potency, dose response, cell-based (AID 1277); assay type: functional
# T2 sequence (P25929 whole entry): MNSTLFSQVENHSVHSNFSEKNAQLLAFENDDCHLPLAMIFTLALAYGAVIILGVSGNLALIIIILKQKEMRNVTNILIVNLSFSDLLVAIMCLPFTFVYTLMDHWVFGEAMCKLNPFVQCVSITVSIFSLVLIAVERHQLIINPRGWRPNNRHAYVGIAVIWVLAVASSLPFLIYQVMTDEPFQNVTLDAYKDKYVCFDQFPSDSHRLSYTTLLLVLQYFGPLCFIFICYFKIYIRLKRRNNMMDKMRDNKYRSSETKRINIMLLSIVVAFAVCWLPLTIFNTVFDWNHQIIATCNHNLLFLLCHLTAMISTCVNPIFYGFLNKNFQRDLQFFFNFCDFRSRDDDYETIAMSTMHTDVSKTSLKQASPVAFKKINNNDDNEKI
# [3] = enhancers of respiration in Yfh1-depleted yeast, dose response, Friedreich's ataxia, plus single-dose screen (AID 1465); assay type: functional;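 also: yeast depleted of Yfh1p frataxin homolog grown on glycerol needing respiration; WST-1 tetrazolium dye reduction as measure of cellular dehydrogenase metabolic activity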
# [4] = target: T1, Neuropeptide Y receptor type 2; experiment: Fluorescence-based cell-based high-throughput dose response assay for agonists of NPY-Y2. [Related pubchem assays: 1703 (Screening assay (CNGC inhibitors).), 1359 (Screening assay (NPY-Y2 potentiators or agonists).), 1304 (Screening assay (NPY-Y1 potentiators or agonists).), 1710 (Screening assay (NPY-Y2 agonists).), 1791 (Summary AID.)]; assay type: functional
# [5] = target: T2, Neuropeptide Y receptor type 1; experiment: Fluorescence-based counterscreen for agonists of NPY-Y2: cell-based high-throughput dose response assay for agonists of NPY-Y1.; assay type: functional
# HEK293 = experiment: Fluorescence-based counterscreen for potentiators or agonists of NPY-Y2: cell-based high-throughput dose response assay to identify inhibitors of cyclic nucleotide gated ion channel (CNGC) activity. In this assay, the parental HEK293 cell line transfected with a cyclic-nucleotide gated ion channel (CNGC)-based cAMP sensor is used to measure inhibition of isoproterenol-induced CNGC activity by test compound.; assay type: functional; settings: Homo sapiens;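 also: stimulus is 1 µM isoproterenol at EC100 plus PDE inhibitor Ro 20-1724 at 25 µM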
# INS1 = experiment: beta cell apoptosis inhibitors, cytokine rescue, dose response, luminescence, retest (AID 449756); assay type: functional, cell-based; settings: Rattus norvegicus;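 also: cell death triggered by IL-1 beta plus TNF-alpha plus IFN-gamma mixture; protective hits raise ATP signal compared with cytokine alone wells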
# [6] = target: Sphingosine 1-phosphate receptor 2 (Homo sapiens, UniProt O95136); experiment: Dose Response Cell Based Assay for Antagonists of the S1P2 Receptor. [Related pubchem assays: 856, 736 ]; assay type: functional
# [7] = inhibitors of intracellular T. cruzi replication, confirmation, NIH3T3 host cells, beta-gal luminescence (AID 2044); assay type: functional, cell-based;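 also: intracellular parasites grown in NIH/3T3 mouse fibroblasts as host cells; luminescent beta-galactosidase reporter signal from transgenic T. cruzi replicating inside host cells; inhibitors lower the luminescence signal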
# [8] = NIH-3T3 fibroblast cytotoxicity, dose response, cytotoxicity control, cell-based, fluorescence, Alamar Blue, secondary assay (AID 2327); assay type: functional;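 also: NIH-3T3 mouse fibroblasts cultured with fluconazole at 8 µg/mL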
# [9] = cytotoxicity toward NIH3T3 fibroblasts, dose response, counter-screen, cell-based, ATP luminescence, mouse fibroblasts (AID 2010); assay type: functional;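 also: cells exposed to compound for about 90 hours before reading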
# [10] = C. albicans growth with fluconazole, confirmation, fluorescence, retest (AID 2467); assay type: functional, cell-based
# [11] = target: T3, Replicative DNA helicase DnaB (Mycobacterium tuberculosis, UniProt P9WMR3); experiment: DnaB intein splicing inhibitors, dose response, biochemical, cell-free fluorescence (AID 449749); assay type: functional
# T3 sequence (P9WMR3 whole entry): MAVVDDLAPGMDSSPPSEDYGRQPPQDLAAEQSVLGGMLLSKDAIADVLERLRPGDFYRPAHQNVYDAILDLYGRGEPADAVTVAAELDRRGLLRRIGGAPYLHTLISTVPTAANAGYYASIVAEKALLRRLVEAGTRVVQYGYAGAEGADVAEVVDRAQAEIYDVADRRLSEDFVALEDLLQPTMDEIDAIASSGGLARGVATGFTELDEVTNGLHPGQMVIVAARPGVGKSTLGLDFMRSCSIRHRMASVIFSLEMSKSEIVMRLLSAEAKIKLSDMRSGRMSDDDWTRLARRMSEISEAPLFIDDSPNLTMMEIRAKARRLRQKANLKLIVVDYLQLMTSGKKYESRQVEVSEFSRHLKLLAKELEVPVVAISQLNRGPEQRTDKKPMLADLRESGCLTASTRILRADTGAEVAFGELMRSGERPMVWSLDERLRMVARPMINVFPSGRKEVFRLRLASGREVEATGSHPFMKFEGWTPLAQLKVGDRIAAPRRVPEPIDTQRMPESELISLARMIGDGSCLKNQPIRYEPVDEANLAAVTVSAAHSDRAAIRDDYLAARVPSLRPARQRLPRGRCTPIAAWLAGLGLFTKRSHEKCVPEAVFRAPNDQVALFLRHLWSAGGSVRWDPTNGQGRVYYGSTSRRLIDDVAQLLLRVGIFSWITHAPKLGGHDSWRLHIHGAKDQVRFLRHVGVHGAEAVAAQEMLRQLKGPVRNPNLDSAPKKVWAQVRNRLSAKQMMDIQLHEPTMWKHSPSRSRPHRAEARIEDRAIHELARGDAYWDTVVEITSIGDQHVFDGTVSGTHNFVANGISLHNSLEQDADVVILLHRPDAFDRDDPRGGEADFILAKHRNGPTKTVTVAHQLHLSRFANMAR
# Protein RecA = target: T4, Protein RecA (Mycobacterium tuberculosis, UniProt P9WHJ3); experiment: Fluorescence Cell-Free Homogeneous Dose Retest to Identify Inhibitors of RecA-Intein Splicing Activity. [Related pubchem assays (depositor defined):AID2097, AID2223, AID489010, AID492950]; assay type: functional
# T4 sequence (P9WHJ3 whole entry): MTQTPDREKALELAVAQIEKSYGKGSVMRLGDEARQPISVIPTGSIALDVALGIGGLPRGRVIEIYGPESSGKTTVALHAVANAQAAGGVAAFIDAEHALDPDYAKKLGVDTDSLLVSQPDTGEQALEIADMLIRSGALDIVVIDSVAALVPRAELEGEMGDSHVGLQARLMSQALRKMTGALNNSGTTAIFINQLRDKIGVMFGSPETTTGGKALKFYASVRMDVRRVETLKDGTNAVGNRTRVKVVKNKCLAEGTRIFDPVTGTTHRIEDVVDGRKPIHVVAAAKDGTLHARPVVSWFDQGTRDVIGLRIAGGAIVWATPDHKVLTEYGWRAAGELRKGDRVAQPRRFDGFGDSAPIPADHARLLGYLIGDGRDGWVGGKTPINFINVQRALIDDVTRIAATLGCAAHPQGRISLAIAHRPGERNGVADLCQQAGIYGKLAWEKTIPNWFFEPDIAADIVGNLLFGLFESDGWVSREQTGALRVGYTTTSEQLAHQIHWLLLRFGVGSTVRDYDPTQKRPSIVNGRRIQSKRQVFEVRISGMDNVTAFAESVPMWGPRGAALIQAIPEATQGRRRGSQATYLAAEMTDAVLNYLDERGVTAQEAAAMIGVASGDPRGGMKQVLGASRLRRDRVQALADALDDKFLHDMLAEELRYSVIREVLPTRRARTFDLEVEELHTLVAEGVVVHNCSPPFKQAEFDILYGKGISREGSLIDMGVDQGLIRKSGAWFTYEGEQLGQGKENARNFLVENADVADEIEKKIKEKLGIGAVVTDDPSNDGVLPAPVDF
# HeLa = experiment: Cytotoxicity counterscreen assay for transcriptional activators of heat shock protein 70 (Hsp70). [Related pubchem assays: 1203, 1252 ]; assay type: functional; settings: Homo sapiens;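 also: cells exposed to compound for 16 hours before readout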
# [12] = Luminescent dose response cell-based high throughput screening assay for inhibitors of the Janus kinase 2 mutant JAK2V617F. [Related pubchem assays: 1446 (Primary screen.), 1521 (Confirmation assay.), 1486 (Counter screen.)]; assay type: functional
# BJ [13] = experiment: cytotoxicity toward BJ-TERT fibroblasts, dose response, cell-based, RAS-independent, luminescence (AID 1933); assay type: functional; settings: Homo sapiens
# [14] = Luminescence-based counterscreen assay for KLF5 inhibitors: dose response cell-based high throughput screening assay to identify cytotoxic compounds using the IEC-6 intestinal epithelial cell line. [Related pubchem assays: 1700 (Primary screen.), 1834 (Confirmation screen.), 1858 (Summary AID.), 1905 (Counterscreen.)]; assay type: functional
# BJ [15] = experiment: cells; assay type: functional, cell-based; settings: Homo sapiens
# [16] = cytotoxicity toward DRD oncogenic fibroblasts, dose response, cell-based, non-viral oncogenic, luminescence (AID 1934); assay type: functional; settings: Homo sapiens
# BJ [17] = experiment: cytotoxicity toward BJ-TERT-LT-ST fibroblasts, dose response, cell-based, RAS-independent, luminescence (AID 1935); assay type: functional; settings: Homo sapiens;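 also: BJ fibroblasts immortalized with TERT plus LT and ST oncogenes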
# [18] = target: Dual specificity tyrosine-phosphorylation-regulated kinase 1A (Rattus norvegicus, UniProt Q63470); assay type: biochemical, Homo sapiens
# [19] = target: T5, Small ubiquitin-related modifier 1 (Homo sapiens, UniProt P63165); experiment: inhibitors of SUMO1 peptide binding, dose response, biochemical, fluorescence polarization, uHTS hits (AID 624382); assay type: functional; settings: read-out: IC50_Mean
# [20] = target: T5, Small ubiquitin-related modifier 1; experiment: inhibitors of SUMO1 partner interactions, dose response, biochemical, FRET (AID 624383); assay type: functional; settings: read-out: IC50_Mean
# Bcl-2-like protein 1 = Bcl-2-like protein 1 (Homo sapiens, UniProt Q07817); experiment: BCL-XL inhibitors, dose response, selectivity assay for MCL1 inhibitor project, biochemical, fluorescence polarization, 1536-well (AID 2218)
# [21] = target: Dual specificity protein phosphatase 3 (Homo sapiens, UniProt P51452); experiment: VHR phosphatase inhibition, dose response, selectivity assay for STEP inhibitor project, biochemical (AID 602374); assay type: functional; settings: read-out: IC50_Mean
# [22] = target: Tyrosine-protein phosphatase non-receptor type 5 (Homo sapiens, UniProt P54829); experiment: STEP phosphatase inhibitors, confirmation, biochemical, fluorescence intensity, uHTS hits (AID 602372); assay type: functional; settings: read-out: IC50_Mean
# [23] = target: Tyrosine-protein phosphatase non-receptor type 11 (Homo sapiens, UniProt Q06124); experiment: SHP2 phosphatase inhibition, dose response, selectivity assay for STEP inhibitor project, biochemical (AID 602367); assay type: functional; settings: read-out: IC50_Mean
# [24] = target: Induced myeloid leukemia cell differentiation protein Mcl-1 (Homo sapiens, UniProt Q07820); experiment: MCL1-BIM BH3 interaction inhibitors, dose response, biochemical, fluorescence polarization, BIM-BH3 peptide, 1536-well (AID 2217)
# Induced myeloid leukemia cell differentiation protein Mcl-1, sequence (Q07820 whole entry): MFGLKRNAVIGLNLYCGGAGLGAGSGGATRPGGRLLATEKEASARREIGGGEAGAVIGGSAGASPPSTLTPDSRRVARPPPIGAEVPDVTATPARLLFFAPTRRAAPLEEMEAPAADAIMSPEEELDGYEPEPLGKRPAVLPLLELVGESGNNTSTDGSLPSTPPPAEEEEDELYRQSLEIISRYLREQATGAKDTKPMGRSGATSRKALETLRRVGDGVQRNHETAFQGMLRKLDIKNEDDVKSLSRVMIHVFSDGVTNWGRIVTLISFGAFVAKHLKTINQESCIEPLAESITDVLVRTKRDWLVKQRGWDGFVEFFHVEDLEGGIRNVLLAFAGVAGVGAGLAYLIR
# T5 sequence (P63165 whole entry): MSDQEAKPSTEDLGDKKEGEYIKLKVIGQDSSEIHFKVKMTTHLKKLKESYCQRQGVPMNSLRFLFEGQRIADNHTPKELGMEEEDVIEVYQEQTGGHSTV
# Dual specificity protein phosphatase 3, sequence (P51452 whole entry): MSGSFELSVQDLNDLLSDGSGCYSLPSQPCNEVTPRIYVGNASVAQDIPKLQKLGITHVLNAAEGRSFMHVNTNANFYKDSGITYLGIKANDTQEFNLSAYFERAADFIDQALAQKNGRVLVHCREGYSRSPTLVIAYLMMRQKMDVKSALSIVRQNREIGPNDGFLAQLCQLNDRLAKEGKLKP
# Bcl-2-like protein 1, sequence (Q07817 whole entry): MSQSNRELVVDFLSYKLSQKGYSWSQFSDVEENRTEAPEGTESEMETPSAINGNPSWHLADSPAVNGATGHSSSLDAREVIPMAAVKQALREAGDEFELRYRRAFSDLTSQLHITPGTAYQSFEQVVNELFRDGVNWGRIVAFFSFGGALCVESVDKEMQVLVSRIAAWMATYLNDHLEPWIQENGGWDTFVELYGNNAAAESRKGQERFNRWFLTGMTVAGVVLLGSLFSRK
# Tyrosine-protein phosphatase non-receptor type 5, sequence (P54829 whole entry): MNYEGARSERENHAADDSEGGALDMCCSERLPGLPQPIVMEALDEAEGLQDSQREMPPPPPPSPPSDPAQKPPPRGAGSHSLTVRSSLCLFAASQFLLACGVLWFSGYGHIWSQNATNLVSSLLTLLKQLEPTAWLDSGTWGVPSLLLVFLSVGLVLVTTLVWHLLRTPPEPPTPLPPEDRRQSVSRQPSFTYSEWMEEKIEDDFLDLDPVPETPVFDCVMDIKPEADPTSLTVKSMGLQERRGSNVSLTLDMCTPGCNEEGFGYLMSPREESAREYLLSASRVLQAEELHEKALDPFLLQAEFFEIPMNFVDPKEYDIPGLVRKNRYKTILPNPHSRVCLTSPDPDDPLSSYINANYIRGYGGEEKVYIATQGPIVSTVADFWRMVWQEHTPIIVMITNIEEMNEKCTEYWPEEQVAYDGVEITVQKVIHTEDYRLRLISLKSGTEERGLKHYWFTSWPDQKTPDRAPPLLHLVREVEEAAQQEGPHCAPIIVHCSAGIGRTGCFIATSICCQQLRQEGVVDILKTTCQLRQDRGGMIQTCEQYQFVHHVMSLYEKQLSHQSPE
# Tyrosine-protein phosphatase non-receptor type 11, sequence (Q06124 whole entry): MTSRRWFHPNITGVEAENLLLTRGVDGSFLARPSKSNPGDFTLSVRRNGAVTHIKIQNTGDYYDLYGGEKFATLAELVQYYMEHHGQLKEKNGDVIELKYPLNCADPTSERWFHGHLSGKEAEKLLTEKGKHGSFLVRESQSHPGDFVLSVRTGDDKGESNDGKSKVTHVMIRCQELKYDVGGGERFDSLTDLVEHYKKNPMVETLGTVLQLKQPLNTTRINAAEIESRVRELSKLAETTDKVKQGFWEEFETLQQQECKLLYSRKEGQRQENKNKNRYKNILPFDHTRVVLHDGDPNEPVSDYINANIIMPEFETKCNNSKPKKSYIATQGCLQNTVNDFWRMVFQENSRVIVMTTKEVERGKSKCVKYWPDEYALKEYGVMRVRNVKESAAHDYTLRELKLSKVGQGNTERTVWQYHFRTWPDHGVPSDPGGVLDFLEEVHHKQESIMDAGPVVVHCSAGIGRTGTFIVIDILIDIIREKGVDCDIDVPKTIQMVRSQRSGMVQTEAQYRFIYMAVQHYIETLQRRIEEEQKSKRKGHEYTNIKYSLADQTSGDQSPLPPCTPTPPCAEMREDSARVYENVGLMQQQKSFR
# Sphingosine 1-phosphate receptor 2, sequence (O95136 whole entry): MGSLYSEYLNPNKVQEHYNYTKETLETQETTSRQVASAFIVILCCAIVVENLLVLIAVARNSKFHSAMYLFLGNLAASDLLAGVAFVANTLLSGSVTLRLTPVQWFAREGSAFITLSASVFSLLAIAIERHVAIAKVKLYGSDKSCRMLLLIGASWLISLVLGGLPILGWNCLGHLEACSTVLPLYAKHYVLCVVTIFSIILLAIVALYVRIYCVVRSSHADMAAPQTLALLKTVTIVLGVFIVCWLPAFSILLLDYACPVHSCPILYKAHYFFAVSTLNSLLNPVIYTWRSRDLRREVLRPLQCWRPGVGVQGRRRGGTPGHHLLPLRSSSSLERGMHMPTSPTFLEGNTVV
structure (smiles),measurement,setting,value
CCc1cccc(CC)c1NC(=O)C(NS(=O)(=O)c1cccs1)c1ccccc1 (centres undefined),IC50,[1],> 35 µM (not active)
same,IC50,[2],> 35 µM (not active)
COc1ccc2ccccc2c1C(=O)/C=C\c1ccoc1,EC50,[3],> 100 µM (active)
COc1ccc(N2CCN(CC(O)COc3ccccc3[N+](=O)[O-])CC2)cc1 (centres undefined),EC50,[4],12.3 µM (not active)
same,EC50,[5],9.49 µM (active)
same,EC50,HEK293,2.43 µM (active)
O=C(OCn1ncc(Cl)c(Cl)c1=O)c1ccc(F)cc1,AC50,INS1,7.34 µM (active)
same,IC50,[6],3.76 µM (active)
same,EC50,[7],1.16 µM (active)
same,EC50,[8],1.85 µM (inconclusive)
same,EC50,[9],1.04 µM (active)
same,EC50,[10],> 38 µM (not active)
same,AC50,[11],5.07 µM (active)
same,EC50,Protein RecA,0.938 µM (active)
same,CC50,HeLa,21.7 µM (not active)
same,IC50,[12],0.351 µM (active)
COc1ccc2[nH]c(C(=O)N/N=C/c3ccc(OC)c(O)c3)cc2c1,EC50,BJ [13],1.89 µM (active)
same,IC50,[14],20.4 µM (not active)
same,EC50,BJ [15],59.5 µM (inconclusive)
same,EC50,[16],41.7 µM (inconclusive)
same,EC50,BJ [17],50.5 µM (inconclusive)
same,AC50,[18],1.04 µM (active)
O=C(N/N=C/c1ccncc1)c1cccc(S(=O)(=O)Nc2ccc(Cl)cc2)c1,IC50,[19],> 66.6 µM (inactive)
same,IC50,[20],10.3 µM (active)
same,IC50,Bcl-2-like protein 1,> 109 µM (not active)
same,IC50,[21],2.87 µM (active)
same,IC50,[22],14.7 µM (active)
same,IC50,[23],2.6 µM (active)
same,IC50,[24],11.3 µM (not active)
